Each compound was assayed against T1, CXCR7 (Homo sapiens, UniProt P25106) (assay: PathHunter CHO-K1 CXCR7 b-arrestin recruitment assay (CXCR7 agonistic activity)). Conditions: PathHunter CHO-K1 CXCR7 b-arrestin cell line.
T1 construct: host or cells: CHO-K1 (PathHunter CHO-K1 CXCR7 b-arrestin cell line, stably transfected)
Format: cell-based
Description: The CXCl12 receptor and CXCR7 agonistic activities of the compounds of formula (I) are determined in accordance with the following experimental method.
The assay is using the PathHunter™ CHO-K1 CXCR7 b-arrestin cell line from DiscoverX. The system is based on the Enzyme Fragment Complementation Technology. Two complementing fragments of the b-galactosidase enzyme are expressed within stably transfected cells. The larger portion of b-gal, termed EA for Enzyme Acceptor, is fused to the C-terminus of b-arrestin 2. The smaller fragment, termed ProLink™ tag, is fused to CXCR7 at the C-terminus. Upon activation, b-arrestin is recruited which forces the interaction of ProLink and EA, allowing complementation of the two fragments of b-gal and the formation of a functional enzyme which is capable of hydrolysing the substrate and generating a chemiluminescent signal.
CHO-K1 CXCR7 b-arrestin cells are detached from culture dishes with a cell dissociation buffer (Invitrogen, #13151-014) and collected in growing medium (F12 HAMS 90% (v/v)/FCS 10% (v/v), Penicillin/streptomycin 1% (v/v)). 5000 cells per well (in 20 μl) are seeded in a 384 well plate (white-walled, clear bottom; BD Falcon #353274). The plate is incubated at 37° C./5% CO2 for 24 hours. Medium is then replaced by 20 μl OPTIMEM (Invitrogen #31985) for 3 to 4 hours. Test compounds are dissolved at 10 mM in DMSO and serially diluted in DMSO to 200× of the final concentration for dose response curves. Compounds are then diluted 1:33.3 in HBSS1×. 5 μl/well of HBSS1×/20 mM HEPES/0.2% BSA are added to the assay plate followed by addition of 5 μl/well of diluted compounds. CXCL12 (Peprotech #300-28A) may be used as a reference agonist. The plate is incubated for 90 minutes at 37° C. 12 μl of detection reagent (Path Hunter Detection Kit, DiscoveRx, #93-0001) is transferred to the assay plate and to the plate is incubated for 1 hour at room temperature. Luminescent signal is read in a microplate reader (FLUOstar Optima, bmg). The calculated EC50 values may fluctuate depending on the daily cellular assay performance. Fluctuations of this kind are known to those skilled in the art. Average EC50 values from several measurements are given as geometric mean values.

T1 sequence (P25106 whole entry): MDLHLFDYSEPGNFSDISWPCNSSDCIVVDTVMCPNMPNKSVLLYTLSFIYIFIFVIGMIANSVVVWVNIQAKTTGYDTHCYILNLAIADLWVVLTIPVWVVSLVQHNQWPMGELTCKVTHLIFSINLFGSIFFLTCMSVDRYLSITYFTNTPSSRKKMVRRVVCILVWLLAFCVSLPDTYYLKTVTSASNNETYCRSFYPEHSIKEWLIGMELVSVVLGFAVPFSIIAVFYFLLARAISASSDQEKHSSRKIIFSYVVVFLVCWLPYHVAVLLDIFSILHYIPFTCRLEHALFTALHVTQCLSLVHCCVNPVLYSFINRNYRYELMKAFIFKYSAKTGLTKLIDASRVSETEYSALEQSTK
T1 sequence (P32121 whole entry partner): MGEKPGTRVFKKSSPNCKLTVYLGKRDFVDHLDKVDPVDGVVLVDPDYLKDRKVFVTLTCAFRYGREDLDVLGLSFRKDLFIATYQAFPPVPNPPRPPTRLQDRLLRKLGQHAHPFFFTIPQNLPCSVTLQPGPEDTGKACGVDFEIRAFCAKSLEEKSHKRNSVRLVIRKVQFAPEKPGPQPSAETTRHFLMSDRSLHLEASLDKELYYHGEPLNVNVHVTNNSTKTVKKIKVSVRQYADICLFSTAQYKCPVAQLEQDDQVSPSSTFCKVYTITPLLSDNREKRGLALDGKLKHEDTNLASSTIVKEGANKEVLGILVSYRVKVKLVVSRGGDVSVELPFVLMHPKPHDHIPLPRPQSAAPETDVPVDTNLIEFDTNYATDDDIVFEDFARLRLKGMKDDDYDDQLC

Compound	EC50 [µM]
CN1CCN(C(=O)CNc2cccc3c2CCN(CC2CC2)C3)C(c2ccccc2)C1 (racemic) [Reference Example 104, rac-2-(2-Cyclopropylmethyl-1,2,3,4-tetrahydro-isoquinolin-5-ylamino)-1-(4-methyl-2-phenyl-piperazin-1-yl)-ethanone]	0.233
CN1CCCC(N(Cc2ccccc2C(F)(F)F)C(=O)CNc2cccc3c2CCN(CC2CC2)C3)C1 (racemic) [compound 136]	0.001
CCN1CCc2cccc(NCC(=O)N(Cc3ccccc3)C3CCNC3)c2C1 (racemic) [compound 378]	0.321
O=C(CNc1cccc2c1CCN(CC1CC1)C2)N(Cc1ccccc1C(F)(F)F)C1CCNC1 (racemic) [compound 381]	0.009
CNCCN(Cc1ccccc1C(F)(F)F)C(=O)CNc1cccc2c1CCN(CC1CC1)C2C (racemic) [compound 382]	0.008
CNCCN(Cc1ccccc1C(F)(F)F)C(=O)CNc1cccc2c1CCN(C(=O)C1CCOC1)C2 (racemic) [compound 392]	0.03
CNCCN(Cc1ncccc1C(F)(F)F)C(=O)CNc1cccc2c1CCN(C(=O)C1CCOC1)C2 (racemic) [compound 417]	0.015
O=C(CNc1cccc2c1CCN(CC1CC1)C2)N(Cc1ccccc1C(F)(F)F)CC1CCNC1 (racemic) [compound 441]	0.005
CN(CCN(Cc1ccccc1C(F)(F)F)C(=O)CNc1cccc2c1CCN(CC1CC1)C2)C1CCOC1 (racemic) [compound 448]	0.002
CC(CF)N(C)CCN(Cc1ccccc1C(F)(F)F)C(=O)CNc1cccc2c1CCN(CC1CC1)C2 (racemic) [compound 452]	0.004
CCN1CCc2cccc(NCC(=O)N(CCC3CCCN3C)Cc3ccccc3)c2C1 (racemic) [compound 508]	0.034
CCN1CCc2cccc(NCC(=O)N(Cc3ccccc3)C3CCN(C)C3)c2C1 (racemic) [compound 512]	0.056
CCN1CCc2cccc(NCC(=O)N(Cc3ccccc3C(F)(F)F)C3CCCN(C)C3)c2C1 (racemic) [compound 518]	0.009
CCN1CCc2cccc(NCC(=O)N(Cc3ccccc3C(F)(F)F)C(C)c3ccn(CC)n3)c2C1 (racemic) [compound 521]	0.269
CCN1CCc2cccc(NCC(=O)N(CCN(C)C)C(C)c3ccccc3C(F)(F)F)c2C1 (racemic) [compound 522]	0.14
CN(C)CCN(Cc1ncccc1Cl)C(=O)CNc1cccc2c1CN(C(=O)[C@H]1C[C@H]1F)CC2 (relative stereo) [compound 459]	0.059

Compound	EC50 [µM]
CN(C)CCN(Cc1ncccc1Br)C(=O)CNc1cccc2c1CN(C(=O)[C@H]1C[C@H]1F)CC2 (relative stereo) [compound 460]	0.085
CC(C)(O)CN(Cc1ncccc1Br)C(=O)CNc1cccc2c1CN(C(=O)[C@H]1C[C@H]1F)CC2 (relative stereo) [compound 461]	0.42
CC1c2cccc(NCC(=O)N(CCN(C)C)Cc3ccccc3C(F)(F)F)c2CCN1CC1CC1 (single isomer, unassigned) [Example 211a, (S)- or (R)-2-((2-(Cyclopropylmethyl)-1-methyl-1,2,3,4-tetrahydroisoquinolin-5-yl)amino)-N-(2-(dimethylamino)ethyl)-N-(2-(trifluoromethyl)benzyl)acetamide]	0.001
CC1c2cccc(NCC(=O)N(CCN(C)C)Cc3ccccc3C(F)(F)F)c2CCN1CC1CC1 (single isomer, unassigned) [Example 211b, (R)- or (S)-2-((2-(Cyclopropylmethyl)-1-methyl-1,2,3,4-tetrahydroisoquinolin-5-yl)amino)-N-(2-(dimethylamino)ethyl)-N-(2-(trifluoromethyl)benzyl)acetamide]	0.006
CN(C)CCN(Cc1ccccc1C(F)(F)F)C(=O)CNc1cccc2c1CCN(C(=O)[C@H]1C[C@H]1F)C2 (single isomer, unassigned) [Example 363a, N-(2-Dimethylamino-ethyl)-2-[2-((1R*,2R*)-2-fluoro-cyclopropanecarbonyl)-1,2,3,4-tetrahydro-isoquinolin-5-ylamino]-N-(2-trifluoromethyl-benzyl)-acetamide]	0.006
CN(C)CCN(Cc1ccccc1C(F)(F)F)C(=O)CNc1cccc2c1CCN(C(=O)[C@@H]1C[C@@H]1F)C2 (single isomer, unassigned) [Example 363b, N-(2-Dimethylamino-ethyl)-2-[2-((1 S*,2S*)-2-fluoro-cyclopropanecarbonyl)-1,2,3,4-tetrahydro-isoquinolin-5-ylamino]-N-(2-trifluoromethyl-benzyl)-acetamide]	0.005
CN(C)CCN(Cc1ccccc1)C(=O)Cc1cccc2c1CCN(CC1CC1)C2 [Example 1, N-Benzyl-2-(2-cyclopropylmethyl-1,2,3,4-tetrahydro-isoquinolin-5-yl)-N-(2-dimethylamino-ethyl)-acetamide]	0.079
CN(C)CCN(CCc1ccccc1)C(=O)Cc1cccc2c1CCN(CC1CC1)C2 [Example 2, 2-(2-Cyclopropylmethyl-1,2,3,4-tetrahydro-isoquinolin-5-yl)-N-(2-dimethylamino-ethyl)-N-phenethyl-acetamide]	0.144
O=C(Cc1cccc2c1CCN(CC1CC1)C2)N(CCN1CCCC1)Cc1ccccc1 [Example 3, N-Benzyl-2-(2-cyclopropylmethyl-1,2,3,4-tetrahydro-isoquinolin-5-yl)-N-(2-pyrrolidin-1-yl-ethyl)-acetamide]	0.042
CN(C)CCN(Cc1ncccc1C(F)(F)F)C(=O)Cc1cccc2c1CCN(CC1CC1)C2 [Example 5, 2-(2-Cyclopropylmethyl-1,2,3,4-tetrahydro-isoquinolin-5-yl)-N-(2-dimethylamino-ethyl)-N-(3-trifluoromethyl-pyridin-2-ylmethyl)-acetamide]	0.187
CN(C)CCN(Cc1ccccc1C(F)(F)F)C(=O)Cc1cccc2c1CCN(CC1CC1)C2 [Example 6, 2-(2-Cyclopropylmethyl-1,2,3,4-tetrahydro-isoquinolin-5-yl)-N-(2-dimethylamino-ethyl)-N-(2-trifluoromethyl-benzyl)-acetamide]	0.06
O=C(Cc1cccc2c1CCN(CC1CC1)C2)N(CCN1CCCC1)Cc1ccccc1C(F)(F)F [Example 7, 2-(2-Cyclopropylmethyl-1,2,3,4-tetrahydro-isoquinolin-5-yl)-N-(2-pyrrolidin-1-yl-ethyl)-N-(2-trifluoromethyl-benzyl)-acetamide]	0.032
CN(C)CCN(Cc1ccccc1)C(=O)CNc1cccc2c1CCN(C(=O)OC(C)(C)C)C2 [Example 8, 5-({[Benzyl-(2-dimethylamino-ethyl)-carbamoyl]-methyl}-amino)-3,4-dihydro-1H-isoquinoline-2-carboxylic acid tert-butyl ester]	0.23
CC(C)CCN(Cc1ccccc1)C(=O)CNc1cccc2c1CCN(C(=O)OC(C)(C)C)C2 [Example 9, 5-({[Benzyl-(3-methyl-butyl)-carbamoyl]-methyl}-amino)-3,4-dihydro-1H-isoquinoline-2-carboxylic acid tert-butyl ester]	0.451
CN1CCC(N(Cc2ccccc2C(F)(F)F)C(=O)CNc2cccc3c2CCN(C(=O)OC(C)(C)C)C3)CC1 [Example 10, 5-({[(1-Methyl-piperidin-4-yl)-(2-trifluoromethyl-benzyl)-carbamoyl]-methyl}-amino)-3,4-dihydro-1H-isoquinoline-2-carboxylic acid tert-butyl ester]	0.337

— patent publication US9920010B2, “CXCR7 receptor modulators” (IDORSIA PHARMACEUTICALS LTD, priority 2013, dated 2018)
